Results on one compound are retold here after paper PMC12490239, “Combining BET inhibition with SMAC mimetics restricts tumor growth and triggers immune surveillance in preclinical cancer models” (Cell Reports Medicine, 2025).

Common to all, as to test: cells
Holding throughout (design): CellTiter-Glo 2.0 luminescence proliferation/viability assay, single agents, human tumour cell line panel
(In ATP-based viability assays light output follows the ATP content of the culture.)

In one test the test system is CFPAC-1. As to conditions: Homo sapiens, CFPAC-1, 96 h; single agent; read-out: IC50 SMACm. The procedure, abridged: (§1)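 Human tumour cell lines were seeded into assay plates and held at 37°C with 5% CO2 for twenty-four hours, then exposed in triplicate to rising concentrations of the SMAC mimetic, from 4.5 nM to 10 μM, with DMSO as control. After 96 h, viability was read as CellTiter-Glo2.0 luminescence to derive single-agent IC50 values.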

The next test deals with CL14. As to conditions: 96 h; single agent; read-out: IC50 SMACm. Put shortly: as §1
Another test deals with Calu-3. As to conditions: Homo sapiens, Calu-3, 96 h; single agent; read-out: IC50 SMACm. The procedure, abridged:
as §1

The next test concerns HCC78. The following applies: Homo sapiens, HCC78, 96 h; single agent; read-out: IC50 SMACm. The procedure, abridged: as §1
The subject of another test is KE-39. As to conditions: 96 h; single agent; read-out: IC50 SMACm. The procedure, abridged: as §1
The test system of the next test is KM12L4. The following applies: KM 12L4, 96 h; single agent; read-out: IC50 SMACm. The procedure, abridged: as §1
Another test deals with KP-4. The following applies: Homo sapiens, KP-4, 96 h; single agent; read-out: IC50 SMACm. The procedure, abridged: as §1
The subject of a further test is MKN74. The following applies: Homo sapiens, MKN-74, 96 h; single agent; read-out: IC50 SMACm. The procedure, abridged:
as §1

Another test deals with NCI-H1373. As to conditions: Homo sapiens, NCI-H1373, 96 h; single agent; read-out: IC50 SMACm. The procedure, abridged: as §1
For another test, the system named is NCI-H838. The following applies: Homo sapiens, NCI-H838, 96 h; single agent; read-out: IC50 SMACm. The procedure, abridged: as §1
In another test the test system is RERF-LC-Ad2. As to conditions: RERF-LC-Ad2, 96 h; single agent; read-out: IC50 SMACm. Put shortly:
as §1

Another test relates to SNU503. As to conditions: 96 h; single agent; read-out: IC50 SMACm. Put shortly: as §1
For the next test, the system named is SW48. The following applies: Homo sapiens, SW48, 96 h; single agent; read-out: IC50 SMACm. The procedure, abridged: as §1
The subject of a further test is WiDr. As to conditions: Homo sapiens, WiDr, 96 h; single agent; read-out: IC50 SMACm. The procedure, abridged: as §1

What is called IC50 is the concentration at which inhibition is half-maximal.

Where only a bound is given, the exact number is not on record here.

Turning to `CN[C@@H](C)C(=O)Nc1ccc(-c2c(-c3cccnc3OC)nc3cc(C)ccn23)c(C#Cc2ccc3c(C)nccc3c2)n1` [SMACm, BI 891065], the IC50 amounted to 1.99 µM with CFPAC-1; 1.91 µM with CL14; 1.46 µM with Calu-3; 5.11 µM in the test on HCC78; 3.86 µM in the test with KE-39; 4.04 µM in the test with KM12L4. Also, the IC50 with KP-4 is 4.16 µM; in the test on MKN74, 4.57 µM; in the test with NCI-H1373, > 10 µM; in the test on NCI-H838, 4.18 µM; in the test on RERF-LC-Ad2, 2.52 µM; in the test on SNU503 it was 5.23 µM. The 50% inhibitory concentration (IC50) came to 5.9 µM with SW48 and 4.25 µM with WiDr.
